Data taken from patent US11725036B2, “Modified lipidated relaxin B chain peptides and their therapeutic use” (Sanofi, priority 2018, dated 2023).
Starred links: 1 amine or outer side, 2 acyl side, 3 side chain; linkers in the order of their positions; H or OH if unused. Non-standard residues stand in square brackets, D forms with d. Residues, ends and D or L forms follow the SMILES beside them. Groups on a side chain read outwards from the residue. *: point of attachment. X1 = CCCCCCCCCCCCCCCC(=O)N[C@@H](CCC(=O)N[C@@H](CCC(=O)N[C@@H](CCC(=O)NCCCOCCOCCOCCCNC(=O)CCC(=O)NCCCOCCOCCOCCCNC(=O)CCC(=O)NCCCOCCOCCOCCCN*)C(=O)O)C(=O)O)C(=O)O; X8 = CCCCCCCCCCCCCCCC(=O)N[C@@H](CCC(=O)N[C@@H](CCC(=O)N[C@@H](CCC(=O)N[C@@H](CCC(=O)NCCCOCCOCCOCCCNC(=O)CCC(=O)NCCCOCCOCCOCCCN*)C(=O)O)C(=O)O)C(=O)O)C(=O)O; X9 = CCCCCCCCCCCCCCCC(=O)N[C@@H](CCC(=O)N[C@@H](CCC(=O)NCCCOCCOCCOCCCNC(=O)CCC(=O)NCCCOCCOCCOCCCN*)C(=O)O)C(=O)O; γGlu = O=C(O)[C@H](CCC(=O)[*:2])N[*:1]; Palmitoyl = CCCCCCCCCCCCCCCC(=O)*; Cit = NC(=O)NCCC[C@H](N)C(=O)O; Suc = O=C(CCC(=O)[*:2])[*:1]; αMeK = C[C@](N)(CCCCN)C(=O)O; AEEA = NCCOCCOCC(=O)O; Aib = CC(C)(N)C(=O)O

Target: T1, RXFP1 (Homo sapiens, UniProt Q9HBX9)
T1 construct: OVCAR5 cells expressing endogenous RXFP1; endogenous in cells; host or cells: OVCAR5
T1 sequence (Q9HBX9 1-757): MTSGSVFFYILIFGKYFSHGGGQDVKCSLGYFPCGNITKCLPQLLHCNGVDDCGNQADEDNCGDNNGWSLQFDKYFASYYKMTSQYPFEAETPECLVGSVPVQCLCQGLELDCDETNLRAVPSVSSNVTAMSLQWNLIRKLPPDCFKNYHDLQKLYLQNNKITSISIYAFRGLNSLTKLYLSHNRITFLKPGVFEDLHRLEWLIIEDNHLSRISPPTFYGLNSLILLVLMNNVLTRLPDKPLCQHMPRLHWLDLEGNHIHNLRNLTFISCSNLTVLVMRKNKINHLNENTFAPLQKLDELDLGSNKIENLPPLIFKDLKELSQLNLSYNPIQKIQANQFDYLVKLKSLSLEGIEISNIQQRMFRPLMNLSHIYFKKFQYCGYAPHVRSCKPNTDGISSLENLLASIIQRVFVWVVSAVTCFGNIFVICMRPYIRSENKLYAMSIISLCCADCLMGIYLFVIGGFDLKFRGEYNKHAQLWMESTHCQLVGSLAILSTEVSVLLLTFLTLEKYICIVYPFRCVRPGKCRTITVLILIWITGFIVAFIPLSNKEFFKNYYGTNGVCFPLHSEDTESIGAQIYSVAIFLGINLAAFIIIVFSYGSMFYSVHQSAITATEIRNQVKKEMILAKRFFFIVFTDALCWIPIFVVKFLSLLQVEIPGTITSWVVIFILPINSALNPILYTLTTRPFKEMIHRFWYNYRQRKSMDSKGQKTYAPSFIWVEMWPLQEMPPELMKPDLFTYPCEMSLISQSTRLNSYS
Test: OVCAR5 cAMP assay (HTRF)
Format: cell-based
Settings: for EC50: OVCAR 5 cells expressing endogenous RXFP1, cAMP readout; for Emax: OVCAR 5 cells, maximal cAMP relative to H2-relaxin
From the text: OVCAR5 cells expressing endogenous RXFP1 were used to test RXP1 agonist properties of peptides of the invention, and in particular of the peptides of sequence SEQ ID NO: 1-97.
Since RXFP1 is a Gs coupled GPCR, cAMP was used as readout of RXFP1 activation.
Isobutyl Methyl Xanthine (IBMX) was used to inhibit phosphodiesterase activity facilitating cAMP measurements. HTRF (Homogenous Time Resolved Fluorescence) technology was used to detect cAMP due to its great sensitivity.
In summary, OVCAR5 were grown in regular medium (RPMI) containing 10% fetal calf serum (FCS) and 1% antibiotics (penicillin/streptomycin).
Before the experiments, cells were detached with accutase and incubated for 40 minutes at 37° C. with 1 mM (3-isobutyl-1-methylxanthine) IBMX.
Cells were then distributed in 384 black well plates containing increasing concentrations of the different peptides in a fix volume of medium (without FCS).
After an incubation of 30 min at 37° C. in an humid incubator in 5% CO2, the reaction was stopped by adding a fixed volume of a solution containing a lysis buffer and cAMP-D2 (cAMP labeled with the dye d2) and the anti cAMP antibody linked to Europium and used for cAMP detection.
Readout of the experiment were performed on a fluorimeter allowing HTRF measurement. Activation curves were generated by plotting the intracellular value of cAMP versus log 10 of the compound concentration.
The 50% activation concentration (EC50) was calculated by nonlinear regression using the sigmoidal dose-response (variable slope) equation with Prism 5 software.
Emax % was determined as the maximal intracellular value of cAMP for test compound (upper limit of cAMP vs concentration curve) divided by the maximal intracellular value of cAMP for H2-relaxin determined in the same test occasion multiplied by 100. Emax %=100×[cAMPtest cpd]/[cAMPH2-Rlx]

| SMILES | EC50 | Emax |
| --- | --- | --- |
| CCCCCCCCCCCCCCCC(=O)N[C@@H](CCC(=O)N[C@@H](CCC(=O)N[C@@H](CCC(=O)NCCCOCCOCCOCCCNC(=O)CCC(=O)NCCCOCCOCCOCCCNC(=O)CCC(=O)NCCCOCCOCCOCCCNC(=O)CCC(=O)NCCCC[C@H](NC(=O)CNC(=O)[C@H](CCC(=O)O)NC(=O)C(C)(C)NC(=O)C(C)(C)NC(=O)[C@@H](NC(=O)[C@H](CCCCNC(C)=O)NC(=O)[C@H](C)NC(=O)[C@H](CCCNC(=N)N)NC(=O)[C@@H](NC(=O)[C@H](CCCCN)NC(=O)[C@H](CCC(=O)O)NC(=O)[C@H](CCCNC(=N)N)NC(=O)CNC(=O)[C@H](CCC(=O)O)NC(=O)[C@H](CC(C)C)NC(C)=O)C(C)C)[C@@H](C)CC)C(=O)N[C@@H](CO)C(=O)N[C@H](C(=O)N[C@@H](Cc1c[nH]c2ccccc12)C(=O)N[C@@H](CO)C(=O)NC(C)(C)C(=O)N[C@@H](CCCNC(=N)N)C(=O)N[C@@H](CCCCN)C(=O)N[C@@H](CCCCNC(C)=O)C(N)=O)[C@@H](C)O)C(=O)O)C(=O)O)C(=O)O [compound 1] (Ac-LEGREKVRAK(Ac)I[Aib][Aib]EGK([Suc-X1])STWS[Aib]RKK(Ac)-NH2) | 1.5 nM | 99% |
| CCCCCCCCCCCCCCCC(=O)N[C@@H](CCC(=O)N[C@@H](CCC(=O)N[C@@H](CCC(=O)NCCCOCCOCCOCCCNC(=O)CCC(=O)NCCCOCCOCCOCCCNC(=O)CCC(=O)NCCCOCCOCCOCCCNC(=O)CCC(=O)NCCCC[C@H](NC(=O)CNC(=O)[C@H](CCC(=O)O)NC(=O)C(C)(C)NC(=O)C(C)(C)NC(=O)[C@@H](NC(=O)[C@H](CCCCNC(C)=O)NC(=O)[C@H](C)NC(=O)[C@H](CCCNC(=N)N)NC(=O)[C@@H](NC(=O)[C@H](CCCCN)NC(=O)[C@H](CCC(=O)O)NC(=O)[C@H](CCCNC(=N)N)NC(=O)CNC(=O)[C@H](CCC(=O)O)NC(=O)[C@H](CC(C)C)NC(C)=O)C(C)C)[C@@H](C)CC)C(=O)N[C@@H](CO)C(=O)N[C@H](C(=O)N[C@@H](Cc1ccccc1)C(=O)N[C@@H](CO)C(=O)NC(C)(C)C(=O)N[C@@H](CCCNC(=N)N)C(=O)N[C@@H](C)C(=O)N[C@@H](CCCCNC(C)=O)C(N)=O)[C@@H](C)O)C(=O)O)C(=O)O)C(=O)O [compound 2] (Ac-LEGREKVRAK(Ac)I[Aib][Aib]EGK([Suc-X1])STFS[Aib]RAK(Ac)-NH2) | 2.4 nM | 99% |
| CCCCCCCCCCCCCCCC(=O)N[C@@H](CCC(=O)N[C@@H](CCC(=O)N[C@@H](CCC(=O)NCCOCCOCC(=O)NCCOCCOCC(=O)NCCOCCOCC(=O)NCCOCCOCC(=O)NCCCC[C@H](NC(=O)CNC(=O)[C@H](CCC(=O)O)NC(=O)C(C)(C)NC(=O)C(C)(C)NC(=O)[C@@H](NC(=O)[C@H](CCCCNC(C)=O)NC(=O)[C@H](C)NC(=O)[C@H](CCCNC(=N)N)NC(=O)[C@@H](NC(=O)[C@H](CCCCN)NC(=O)[C@H](CCC(=O)O)NC(=O)[C@H](CCCNC(=N)N)NC(=O)CNC(=O)[C@H](CCC(=O)O)NC(=O)[C@H](CC(C)C)NC(C)=O)C(C)C)[C@@H](C)CC)C(=O)N[C@@H](CO)C(=O)N[C@H](C(=O)N[C@@H](Cc1ccccc1)C(=O)N[C@@H](CO)C(=O)N[C@@](C)(CCCCN)C(=O)N[C@@H](CCCNC(=N)N)C(=O)N[C@@H](C)C(=O)N[C@@H](CCCCNC(C)=O)C(N)=O)[C@@H](C)O)C(=O)O)C(=O)O)C(=O)O [compound 8] (Ac-LEGREKVRAK(Ac)I[Aib][Aib]EGK([AEEA-AEEA-AEEA-AEEA-γGlu-γGlu-γGlu-Palmitoyl])STFS[αMeK]RAK(Ac)-NH2) | 1.86 nM | 92% |
| CCCCCCCCCCCCCCCC(=O)N[C@@H](CCC(=O)N[C@@H](CCC(=O)NCCCOCCOCCOCCCNC(=O)CCC(=O)NCCCOCCOCCOCCCNC(=O)CCC(=O)NCCCC[C@H](NC(=O)CNC(=O)[C@H](CCC(=O)O)NC(=O)C(C)(C)NC(=O)C(C)(C)NC(=O)[C@@H](NC(=O)[C@H](CCCCNC(C)=O)NC(=O)[C@H](C)NC(=O)[C@H](CCCNC(=N)N)NC(=O)[C@@H](NC(=O)[C@H](CCCCN)NC(=O)[C@H](CCC(=O)O)NC(=O)[C@H](CCCNC(=N)N)NC(=O)CNC(=O)[C@H](CCC(=O)O)NC(=O)[C@H](CC(C)C)NC(C)=O)C(C)C)[C@@H](C)CC)C(=O)N[C@@H](CO)C(=O)N[C@H](C(=O)N[C@@H](Cc1ccccc1)C(=O)N[C@@H](CO)C(=O)N[C@@](C)(CCCCN)C(=O)N[C@@H](CCCNC(=N)N)C(=O)N[C@@H](C)C(=O)N[C@@H](CCCCNC(C)=O)C(N)=O)[C@@H](C)O)C(=O)O)C(=O)O [compound 9] (Ac-LEGREKVRAK(Ac)I[Aib][Aib]EGK([Suc-X9])STFS[αMeK]RAK(Ac)-NH2) | 0.7 nM | 93% |
| CCCCCCCCCCCCCCCC(=O)N[C@@H](CCC(=O)N[C@@H](CCC(=O)N[C@@H](CCC(=O)N[C@@H](CCC(=O)NCCCOCCOCCOCCCNC(=O)CCC(=O)NCCCOCCOCCOCCCNC(=O)CCC(=O)NCCCC[C@H](NC(=O)CNC(=O)[C@H](CCC(=O)O)NC(=O)C(C)(C)NC(=O)C(C)(C)NC(=O)[C@@H](NC(=O)[C@H](CCCCNC(C)=O)NC(=O)[C@H](C)NC(=O)[C@H](CCCNC(=N)N)NC(=O)[C@@H](NC(=O)[C@H](CCCCN)NC(=O)[C@H](CCC(=O)O)NC(=O)[C@H](CCCNC(=N)N)NC(=O)CNC(=O)[C@H](CCC(=O)O)NC(=O)[C@H](CC(C)C)NC(C)=O)C(C)C)[C@@H](C)CC)C(=O)N[C@@H](CO)C(=O)N[C@H](C(=O)N[C@@H](Cc1ccccc1)C(=O)N[C@@H](CO)C(=O)N[C@@](C)(CCCCN)C(=O)N[C@@H](CCCNC(=N)N)C(=O)N[C@@H](C)C(=O)N[C@@H](CCCCNC(C)=O)C(N)=O)[C@@H](C)O)C(=O)O)C(=O)O)C(=O)O)C(=O)O [compound 10] (Ac-LEGREKVRAK(Ac)I[Aib][Aib]EGK([Suc-X8])STFS[αMeK]RAK(Ac)-NH2) | 0.79 nM | 95% |
| CCCCCCCCCCCCCCCC(=O)N[C@@H](CCC(=O)N[C@@H](CCC(=O)N[C@@H](CCC(=O)NCCCOCCOCCOCCCNC(=O)CCC(=O)NCCCOCCOCCOCCCNC(=O)CCC(=O)NCCCOCCOCCOCCCNC(=O)CCC(=O)NCCCC[C@H](NC(=O)CNC(=O)[C@H](CCC(=O)O)NC(=O)C(C)(C)NC(=O)C(C)(C)NC(=O)[C@@H](NC(=O)[C@H](CCCCNC(C)=O)NC(=O)[C@H](C)NC(=O)[C@H](CCCNC(=N)N)NC(=O)[C@@H](NC(=O)[C@H](CCCCN)NC(=O)[C@H](CCC(=O)O)NC(=O)[C@H](CCCNC(=N)N)NC(=O)CNC(=O)[C@H](CCC(=O)O)NC(=O)[C@H](CC(C)C)NC(C)=O)C(C)C)[C@@H](C)CC)C(=O)N[C@@H](CO)C(=O)N[C@H](C(=O)N[C@@H](Cc1c[nH]c2ccccc12)C(=O)N[C@@H](CO)C(=O)N[C@@](C)(CCCCN)C(=O)N[C@@H](CCCNC(=N)N)C(=O)N[C@@H](C)C(=O)N[C@@H](CCCCNC(C)=O)C(N)=O)[C@@H](C)O)C(=O)O)C(=O)O)C(=O)O [compound 11] (Ac-LEGREKVRAK(Ac)I[Aib][Aib]EGK([Suc-X1])STWS[αMeK]RAK(Ac)-NH2) | 0.83 nM | 93% |
| CCCCCCCCCCCCCCCC(=O)N[C@@H](CCC(=O)N[C@@H](CCC(=O)N[C@@H](CCC(=O)NCCCOCCOCCOCCCNC(=O)CCC(=O)NCCCOCCOCCOCCCNC(=O)CCC(=O)NCCCOCCOCCOCCCNC(=O)CCC(=O)NCCCC[C@H](NC(=O)CNC(=O)[C@H](CCC(=O)O)NC(=O)C(C)(C)NC(=O)C(C)(C)NC(=O)[C@@H](NC(=O)[C@H](CCCNC(N)=O)NC(=O)[C@H](C)NC(=O)[C@H](CCCNC(=N)N)NC(=O)[C@@H](NC(=O)[C@H](CCCCN)NC(=O)[C@H](CCC(=O)O)NC(=O)[C@H](CCCNC(=N)N)NC(=O)CNC(=O)[C@H](CCC(=O)O)NC(=O)[C@H](CC(C)C)NC(C)=O)C(C)C)[C@@H](C)CC)C(=O)N[C@@H](CO)C(=O)N[C@H](C(=O)N[C@@H](Cc1ccccc1)C(=O)N[C@@H](CO)C(=O)N[C@@](C)(CCCCN)C(=O)N[C@@H](CCCNC(=N)N)C(=O)N[C@@H](C)C(=O)N[C@@H](CCCCNC(C)=O)C(N)=O)[C@@H](C)O)C(=O)O)C(=O)O)C(=O)O [compound 12] (Ac-LEGREKVRA[Cit]I[Aib][Aib]EGK([Suc-X1])STFS[αMeK]RAK(Ac)-NH2) | 0.93 nM | 90% |
